# Earlier results in patent US20130144636A1, “Method and System for Predicting Adverse Drug Reactions Using BioAssay Data” (The Board of Trustees of the Leland Stanford, Junior, …, priority 2011, published 2013).
# Read-outs that look alike come from different tables or passages of the source.
# Key:
# [1] = FDA drug label, DRUGDEX or literature case report
# interleukin-1 (IL-1) = conditions: in vitro
# murine bone marrow = conditions: in vivo murine bone marrow micronucleus tests
# [2] = in vitro mutagenesis tests such as the Ames test
# [3] = molecular target: glutathione-S-transferase μ (GSTP1) (Homo sapiens, UniProt P09211)
# Chain of glutathione-S-transferase μ (GSTP1) (P09211 2-210 limits assumed): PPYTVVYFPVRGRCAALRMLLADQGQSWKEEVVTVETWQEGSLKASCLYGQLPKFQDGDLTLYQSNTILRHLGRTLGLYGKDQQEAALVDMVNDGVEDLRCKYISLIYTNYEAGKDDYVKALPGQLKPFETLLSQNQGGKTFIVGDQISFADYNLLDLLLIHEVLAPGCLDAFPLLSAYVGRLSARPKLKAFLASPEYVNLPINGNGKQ
structure (smiles),measurement,setting,value
Oc1c(I)cc(Cl)c2cccnc12 [clioquinol],known adverse drug reaction in humans,[1],associated with subacute myelo-optic neuropathy (SMON) syndrome
CC(=O)Oc1cccc2c1C(=O)c1c(OC(C)=O)cc(C(=O)O)cc1C2=O [diacerein],inhibition of IL-1 synthesis,interleukin-1 (IL-1),directly inhibits the synthesis
Oc1ccc(O)cc1 [hydroquinone],genotoxic carcinogenic activity,murine bone marrow,genotoxic carcinogenic activity
same,genotoxic carcinogenic activity,murine bone marrow; listed as Hydroquinone,carcinogenic
same,mutagenic activity in vitro,[2],but not in in vitro mutagenesis tests
same,mutagenic activity in vitro,[2]; listed as Hydroquinone,inactive
CC(=O)Oc1ccccc1C(=O)Nc1ncc([N+](=O)[O-])s1 [nitazoxanide],inhibition of enzymatic activity,[3],inhibit the enzymatic activity
